Measurements reported in ChEMBL document CHEMBL1201862, “PubChem BioAssay data set” (2004).
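The compound was tested at five concentrations on cells cultured in 96-well plates, with a 48-hour exposure period. Here, GI50 denotes the concentration required for 50% inhibition of growth.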 Activity calls are given as the source filed them. Cut-off read from the data, not from the text of the source: active = GI50 up to about 1.1 µM and inactive = higher.

How the values were obtained:
Test in all cases: DTP human tumour cell line panel, 48 h
786-0 = tested on: 786-0
A498 = tested on: A498
A549 = tested on: A549
ACHN = tested on: ACHN
CAKI-1 = tested on: CAKI-1
CCRF-CEM = tested on: CCRF-CEM
COLO 205 = tested on: COLO 205
DLD-1 = tested on: DLD-1
DMS-114 = tested on: DMS-114
DMS-273 = tested on: DMS-273
EKVX = tested on: EKVX
HCC 2998 = tested on: HCC 2998
HCT-116 = tested on: HCT-116
HCT-15 = tested on: HCT-15
HL-60 = tested on: HL-60
HOP-18 = tested on: HOP-18
HOP-62 = tested on: HOP-62
HOP-92 = tested on: HOP-92
HT-29 = tested on: HT-29
IGROV-1 = tested on: IGROV-1
K562 = tested on: K562
KM12 = tested on: KM12
LOX IMVI = tested on: LOX IMVI
LXFL 529 = tested on: LXFL 529
M14 = tested on: M14
M19-MEL = tested on: M19-MEL
MOLT-4 = tested on: MOLT-4
Malme-3M = tested on: Malme-3M
NCI-H23 = tested on: NCI-H23
NCI-H460 = tested on: NCI-H460
NCI-H522 = tested on: NCI-H522
OVCAR-3 = tested on: OVCAR-3
OVCAR-4 = tested on: OVCAR-4
OVCAR-5 = tested on: OVCAR-5
OVCAR-8 = tested on: OVCAR-8
RPMI-8226 = tested on: RPMI-8226
SF-268 = tested on: SF-268
SF-295 = tested on: SF-295
SF-539 = tested on: SF-539
SK-MEL-28 = tested on: SK-MEL-28
SK-MEL-2 = tested on: SK-MEL-2
SK-MEL-5 = tested on: SK-MEL-5
SK-OV-3 = tested on: SK-OV-3
SN12C = tested on: SN12C
SNB-75 = tested on: SNB-75
SW-620 = tested on: SW-620
TK-10 = tested on: TK-10
U-251 = tested on: U-251
UACC-62 = tested on: UACC-62
XF498 = tested on: XF498
RXF 393 = tested on: RXF 393
SNB-78 = tested on: SNB-78
SR = tested on: SR
UACC-257 = tested on: UACC-257
UO-31 = tested on: UO-31

O=C(O)CCN(CCCCN(CCC(=O)O)CCC(=O)O)CCC(=O)O
GI50 (786-0): > 100 µM (inactive) | GI50 (A498): > 100 µM (inactive) | GI50 (A549): > 100 µM (inactive) | GI50 (ACHN): > 100 µM (inactive) | GI50 (CAKI-1): > 100 µM (inactive) | GI50 (CCRF-CEM): > 100 µM (inactive) | GI50 (COLO 205): > 100 µM (inactive) | GI50 (DLD-1): > 100 µM (inactive) | GI50 (DMS-114): > 100 µM (inactive) | GI50 (DMS-273): > 100 µM (inactive) | GI50 (EKVX): > 100 µM (inactive) | GI50 (HCC 2998): > 100 µM (inactive) | GI50 (HCT-116): > 100 µM (inactive) | GI50 (HCT-15): > 100 µM | GI50 (HL-60): > 100 µM (inactive) | GI50 (HOP-18): > 100 µM (inactive) | GI50 (HOP-62): > 100 µM (inactive) | GI50 (HOP-92): > 100 µM (inactive) | GI50 (HT-29): > 100 µM (inactive) | GI50 (IGROV-1): > 100 µM (inactive) | GI50 (K562): > 100 µM (inactive) | GI50 (KM12): > 100 µM (inactive) | GI50 (LOX IMVI): > 100 µM (inactive) | GI50 (LXFL 529): > 100 µM (inactive) | GI50 (M14): > 100 µM (inactive) | GI50 (M19-MEL): > 100 µM (inactive) | GI50 (MOLT-4): > 100 µM (inactive) | GI50 (Malme-3M): > 100 µM (inactive) | GI50 (NCI-H23): > 100 µM (inactive) | GI50 (NCI-H460): > 100 µM (inactive) | GI50 (NCI-H522): > 100 µM (inactive) | GI50 (OVCAR-3): > 100 µM (inactive) | GI50 (OVCAR-4): > 100 µM (inactive) | GI50 (OVCAR-5): > 100 µM (inactive) | GI50 (OVCAR-8): > 100 µM (inactive) | GI50 (RPMI-8226): > 100 µM (inactive) | GI50 (SF-268): > 100 µM (inactive) | GI50 (SF-295): > 100 µM (inactive) | GI50 (SF-539): > 100 µM (inactive) | GI50 (SK-MEL-28): > 100 µM (inactive) | GI50 (SK-MEL-2): > 100 µM (inactive) | GI50 (SK-MEL-5): > 100 µM (inactive) | GI50 (SK-OV-3): > 100 µM (inactive) | GI50 (SN12C): > 100 µM (inactive) | GI50 (SNB-75): > 100 µM (inactive) | GI50 (SW-620): > 100 µM (inactive) | GI50 (TK-10): > 100 µM (inactive) | GI50 (U-251): > 100 µM (inactive) | GI50 (UACC-62): > 100 µM (inactive) | GI50 (XF498): > 100 µM (inactive)

N/C(=N\O)N/N=C/c1ccc(C(F)(F)F)cc1
GI50 (786-0): 9.73 µM (inactive) | GI50 (A498): 17.1 µM (inactive) | GI50 (A549): 5.15 µM (inactive) | GI50 (ACHN): 4.61 µM (inactive) | GI50 (CAKI-1): 6.46 µM (inactive) | GI50 (CCRF-CEM): 9.68 µM (inactive) | GI50 (COLO 205): 17.9 µM (inactive) | GI50 (DLD-1): 24.7 µM (inactive) | GI50 (DMS-114): 18.4 µM (inactive) | GI50 (DMS-273): 16.6 µM (inactive) | GI50 (EKVX): 4.23 µM (inactive) | GI50 (HCT-116): 32.9 µM (inactive) | GI50 (HL-60): 10.9 µM (inactive) | GI50 (HOP-62): 15.5 µM (inactive) | GI50 (HOP-92): 18.4 µM (inactive) | GI50 (HT-29): 17.9 µM (inactive) | GI50 (IGROV-1): 7.41 µM (inactive) | GI50 (K562): 16.9 µM (inactive) | GI50 (KM12): 13.1 µM (inactive) | GI50 (LXFL 529): 10.9 µM (inactive) | GI50 (M14): 10.6 µM (inactive) | GI50 (M19-MEL): 35.2 µM (inactive) | GI50 (Malme-3M): 16.7 µM (inactive) | GI50 (NCI-H23): 15 µM (inactive) | GI50 (NCI-H460): 5.04 µM (inactive) | GI50 (NCI-H522): 10.3 µM (inactive) | GI50 (OVCAR-3): 13.5 µM (inactive) | GI50 (OVCAR-4): 4.86 µM (inactive) | GI50 (OVCAR-8): 13.4 µM (inactive) | GI50 (RXF 393): 29.9 µM (inactive) | GI50 (SF-268): 6.61 µM (inactive) | GI50 (SF-295): 26 µM (inactive) | GI50 (SF-539): 15.8 µM (inactive) | GI50 (SK-MEL-28): 62.4 µM (inactive) | GI50 (SK-MEL-2): 18.2 µM (inactive) | GI50 (SK-OV-3): 6.98 µM (inactive) | GI50 (SN12C): 24.7 µM (inactive) | GI50 (SNB-75): 26.7 µM (inactive) | GI50 (SNB-78): 39.4 µM (inactive) | GI50 (SR): 6.85 µM (inactive) | GI50 (SW-620): 31 µM (inactive) | GI50 (TK-10): 23.9 µM (inactive) | GI50 (U-251): 16.8 µM (inactive) | GI50 (UACC-257): 32.2 µM (inactive) | GI50 (UACC-62): 4.66 µM (inactive) | GI50 (XF498): 13.8 µM (inactive)

CC(=O)Oc1cc(OC(C)=O)c2c(c1)OC(c1ccc(OC(C)=O)c(OC(C)=O)c1)CC2=O (stereo not drawn)
GI50 (A549): 43.9 µM (inactive) | GI50 (CCRF-CEM): 20.4 µM (inactive) | GI50 (COLO 205): 63.1 µM (inactive) | GI50 (DMS-273): 50.6 µM (inactive) | GI50 (HCC 2998): > 100 µM (inactive) | GI50 (HCT-116): 63.7 µM (inactive) | GI50 (HL-60): 0.458 µM (active) | GI50 (HOP-18): 30.1 µM (inactive) | GI50 (HOP-92): 29.8 µM (inactive) | GI50 (SF-295): 41.6 µM (inactive) | GI50 (SK-MEL-5): 55.3 µM (inactive) | GI50 (SK-OV-3): 71.9 µM (inactive) | GI50 (SN12C): 0.0446 µM (active) | GI50 (SR): 14.7 µM (inactive) | GI50 (SW-620): 47.5 µM (inactive) | GI50 (TK-10): 49.9 µM (inactive) | GI50 (UO-31): 38.9 µM (inactive)
